US10849867B2, “Methods and compositions for treating conditions associated with an abnormal inflammatory response” (First Wave Bio, Inc., priority 2015, dated 2020)

Experiments:
LPMC T cells = experiment: LPMC T cell death, 7-AAD flow cytometry (Example 3); assay type: cell-based, human
Description: Objective. […] Model. The human LPMC model as described in Example 2 was used. Cell isolation and culture. Cell isolation and culture procedures were as detailed in Example 2. Treatment with Niclosamide. […] […] […] After treatment cells were exposed to 1 μM 7AAD then incubated a further 60 minutes at 37° C. Live cells and dead cells were enumerated by flow cytometer using a FACS Verse cytometer set to excite and measure emitted fluorescence of 7-AAD at appropriate wavelengths. Detecting viable and dead cells. 7-AAD is excluded from live cells but free to enter dead cells where it undergoes a spectral shift after interacting with cellular DNA. […] Use of this reagent allows viable cells and dead cells to be simultaneously enumerated. In order to specifically distinguish T cells from other cells in LPMCs, anti-CD3 monoclonal antibody labeled with FITC (excitation at 494 nm with emission detected at 521 nm) will be used. This antibody specifically binds human CD3 antigen that is selectively expressed on T cells. Cell viability and death was determined specifically in T cells by measuring 7-AAD fluorescence in cells labeled by anti-CD3 FITC. Calculation of T cell death. The fluorescence intensity of 7-AAD detected at 647 nm was measured specifically T the cell population that was first defined as described in Example 2 by FITC-anti-CD3 antibody fluorescence. […] For statistical comparisons, 95% confidence intervals were computed and graphed with the mean values.

[1] = test system: lamina propria T cell (CD3+); experiment: Cell death in lamina propria T cell from active IBD, 7-AAD staining (FIG. 1); assay type: cell-based, human; details: 10 μM for 16 hours, LPMC from IBD subjects, versus DMSO
Description: Cell death in lamina propria T cell (CD3+) was determined by measuring 7-AAD staining by flow cytometry. FIG. 1. […] Cell death in lamina propria T cell (CD3+) was determined by measuring 7-AAD staining by flow cytometry.

O=C(Nc1ccc([N+](=O)[O-])cc1Cl)c1cc(Cl)ccc1O [Niclosamide, 5-chloro-N-(2-chloro-4-nitrophenyl)-2-hydroxybenzamide] was tested, and the “LPMC T cell death” value (LPMC T cells; 1-500 μM, 24 hours, 7-AAD in CD3+ cells) was “dose-related increase”, the “concentrations that fail to induce T cell death” value (LPMC T cells; LPMC T cells) was “below 5 μM” and the “concentrations of niclosamide that significantly increase T cell death (p<0.05)” value (LPMC T cells; relative to negative controls with vehicle alone) was no less than 5 µM. The “cell death in lamina propria T cell (CD3+)” value [1] was “induces cell death”.
